Inhibition and Inhibition data for ten compounds are collected here from ChEMBL document CHEMBL5442334, “ASAP - In vitro safety pharmacology profile” (2024).

Data set [1] addresses Cannabinoid receptor 1 (Homo sapiens) (UniProt P21554). Description: SafetyScreen: CB1 Human Cannabinoid GPCR Binding Agonist Radioligand LeadHunter Assay, catalogue number: 4708. The conditions noted are these: Test compound concentration 10.0 uM.
The target of data set [2] is T1, Amine oxidase [flavin-containing] A (Rattus norvegicus, UniProt P21396).
T1 sequence (P21396 whole entry): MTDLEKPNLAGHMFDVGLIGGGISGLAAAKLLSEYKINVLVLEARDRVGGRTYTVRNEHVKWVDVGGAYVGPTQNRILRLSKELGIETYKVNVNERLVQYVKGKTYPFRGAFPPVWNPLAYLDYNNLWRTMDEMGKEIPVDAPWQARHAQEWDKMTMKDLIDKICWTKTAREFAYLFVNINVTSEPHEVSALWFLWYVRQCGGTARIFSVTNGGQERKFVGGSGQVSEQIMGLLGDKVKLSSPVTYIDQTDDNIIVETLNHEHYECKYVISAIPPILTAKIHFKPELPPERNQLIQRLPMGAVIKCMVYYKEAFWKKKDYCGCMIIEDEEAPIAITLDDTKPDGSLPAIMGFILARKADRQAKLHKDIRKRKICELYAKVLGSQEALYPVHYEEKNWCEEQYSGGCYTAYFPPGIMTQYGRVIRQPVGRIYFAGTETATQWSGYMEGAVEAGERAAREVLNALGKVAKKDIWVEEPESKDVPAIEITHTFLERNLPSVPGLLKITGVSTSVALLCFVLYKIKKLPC
Description: SafetyScreen: Monoamine Oxidase A (MAO-A) Rat Binding Antagonist Radioligand LeadHunter Assay, catalogue number: 443. Conditions: at 10 µM, test compound concentration 10 uM.

In data set [3] the target is T2, 5-hydroxytryptamine receptor 1A (Homo sapiens) (UniProt P08908).
T2 sequence (whole entry): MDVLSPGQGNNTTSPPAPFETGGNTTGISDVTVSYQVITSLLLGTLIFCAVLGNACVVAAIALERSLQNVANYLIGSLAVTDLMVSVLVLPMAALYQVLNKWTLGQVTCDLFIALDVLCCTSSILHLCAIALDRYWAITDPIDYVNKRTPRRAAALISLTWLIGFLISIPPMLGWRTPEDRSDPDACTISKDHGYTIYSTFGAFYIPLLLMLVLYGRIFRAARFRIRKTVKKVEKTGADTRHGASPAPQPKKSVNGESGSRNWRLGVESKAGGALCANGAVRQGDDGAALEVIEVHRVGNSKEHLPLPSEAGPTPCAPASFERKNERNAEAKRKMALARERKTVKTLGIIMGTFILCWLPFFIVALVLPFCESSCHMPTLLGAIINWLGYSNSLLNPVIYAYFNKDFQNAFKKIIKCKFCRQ
The data set can be described thus: SafetyScreen: 5-HT1A Human Serotonin GPCR Binding Agonist Radioligand LeadHunter Assay, catalogue number: 131. The conditions noted are these: Test compound concentration 10.0 uM.

The target in data set [4] is T3, Cholecystokinin receptor type A (Homo sapiens) (UniProt P32238).
T3 sequence (whole entry): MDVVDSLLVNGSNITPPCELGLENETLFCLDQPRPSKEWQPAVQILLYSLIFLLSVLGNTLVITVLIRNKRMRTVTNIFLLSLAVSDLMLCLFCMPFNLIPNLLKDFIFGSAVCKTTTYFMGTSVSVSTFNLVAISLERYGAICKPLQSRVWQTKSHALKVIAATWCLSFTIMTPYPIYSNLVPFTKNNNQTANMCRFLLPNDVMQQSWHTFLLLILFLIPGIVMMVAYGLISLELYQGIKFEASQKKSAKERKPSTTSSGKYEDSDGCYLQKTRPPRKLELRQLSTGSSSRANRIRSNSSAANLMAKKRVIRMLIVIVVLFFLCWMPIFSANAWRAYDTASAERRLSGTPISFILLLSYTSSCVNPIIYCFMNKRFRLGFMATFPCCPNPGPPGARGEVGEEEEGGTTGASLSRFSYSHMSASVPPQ
Description: SafetyScreen: CCK1 (CCKA) Human Cholecystokinin GPCR Binding Agonist Radioligand LeadHunter Assay, catalogue number: 39. Conditions: Test compound concentration 10.0 uM.

In data set [5] the target is Beta-1 adrenergic receptor (Homo sapiens) (UniProt P08588). Description: SafetyScreen: beta1 Human Adrenoceptor GPCR Binding Agonist Radioligand LeadHunter Assay, catalogue number: 18. Conditions: Test compound concentration 10.0 uM.
The target of data set [6] is 5-hydroxytryptamine receptor 2B (Homo sapiens) (UniProt P41595). Description: SafetyScreen: 5-HT2B Human Serotonin GPCR [125I](±)DOI Binding Agonist Radioligand LeadHunter Assay, catalogue number: 1333. The conditions noted are these: Test compound concentration 10.0 uM.
Data set [7] deals with Neuronal acetylcholine receptor; alpha4/beta2 (Homo sapiens) (UniProt P17787+P43681). The data set can be described thus: SafetyScreen: nAChR (alpha4/beta2) Human Ion Channel Binding Agonist Radioligand LeadHunter Assay, catalogue number: 3029. Type of data set: protein-complex assay. The conditions noted are these: Test compound concentration 10.0 uM.
Data set [8] addresses 3',5'-cyclic-AMP phosphodiesterase 4D (Homo sapiens) (UniProt Q08499). The data set can be described thus: SafetyScreen: PDE4D2 Human Phosphodiesterase Enzymatic LeadHunter Assay, catalogue number: 4077. Conditions: Test compound concentration 10.0 uM. Type of data set: functional.
Data set [9] addresses T4, Glucocorticoid receptor (Homo sapiens) (UniProt P04150).
T4 sequence (whole entry): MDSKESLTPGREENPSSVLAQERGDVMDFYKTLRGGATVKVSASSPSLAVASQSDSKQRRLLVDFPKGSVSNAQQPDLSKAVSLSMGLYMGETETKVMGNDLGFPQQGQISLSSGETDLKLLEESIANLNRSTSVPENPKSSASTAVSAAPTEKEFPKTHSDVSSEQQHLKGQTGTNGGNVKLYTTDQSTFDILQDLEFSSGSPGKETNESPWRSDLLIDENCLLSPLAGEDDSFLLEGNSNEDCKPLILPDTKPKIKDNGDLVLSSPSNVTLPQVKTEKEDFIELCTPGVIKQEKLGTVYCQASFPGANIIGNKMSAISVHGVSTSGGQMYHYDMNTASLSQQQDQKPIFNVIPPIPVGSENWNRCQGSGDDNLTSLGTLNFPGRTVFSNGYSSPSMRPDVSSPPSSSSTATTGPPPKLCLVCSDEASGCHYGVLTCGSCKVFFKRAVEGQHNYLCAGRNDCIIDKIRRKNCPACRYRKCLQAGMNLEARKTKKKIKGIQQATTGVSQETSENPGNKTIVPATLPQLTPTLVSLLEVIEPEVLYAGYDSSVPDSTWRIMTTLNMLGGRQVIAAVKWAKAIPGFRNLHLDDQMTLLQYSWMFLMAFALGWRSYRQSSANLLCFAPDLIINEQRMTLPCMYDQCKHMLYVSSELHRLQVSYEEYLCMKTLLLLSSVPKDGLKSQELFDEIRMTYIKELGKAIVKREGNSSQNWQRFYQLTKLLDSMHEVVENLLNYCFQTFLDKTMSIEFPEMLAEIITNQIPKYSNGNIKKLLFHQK
Description: SafetyScreen: GR Human Glucocorticoid NHR Binding Agonist Radioligand LeadHunter Assay, catalogue number: 469. The conditions noted are these: Test compound concentration 10.0 uM.

Chain of 5-hydroxytryptamine receptor 2B (Homo sapiens) (P41595 whole entry): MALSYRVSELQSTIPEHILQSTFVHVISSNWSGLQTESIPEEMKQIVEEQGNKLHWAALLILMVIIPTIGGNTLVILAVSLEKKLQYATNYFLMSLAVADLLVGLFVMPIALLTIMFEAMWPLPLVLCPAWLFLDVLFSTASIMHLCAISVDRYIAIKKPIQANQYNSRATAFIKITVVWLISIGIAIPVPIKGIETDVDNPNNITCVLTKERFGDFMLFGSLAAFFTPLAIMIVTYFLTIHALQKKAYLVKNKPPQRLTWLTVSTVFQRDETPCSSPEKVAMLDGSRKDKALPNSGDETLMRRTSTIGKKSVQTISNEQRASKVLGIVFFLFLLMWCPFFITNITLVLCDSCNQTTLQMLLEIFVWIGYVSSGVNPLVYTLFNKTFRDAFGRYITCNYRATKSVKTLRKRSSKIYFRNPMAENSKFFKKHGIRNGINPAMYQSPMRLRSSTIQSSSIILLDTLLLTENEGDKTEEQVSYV
Chain of Beta-1 adrenergic receptor (Homo sapiens) (P08588 whole entry, looked up): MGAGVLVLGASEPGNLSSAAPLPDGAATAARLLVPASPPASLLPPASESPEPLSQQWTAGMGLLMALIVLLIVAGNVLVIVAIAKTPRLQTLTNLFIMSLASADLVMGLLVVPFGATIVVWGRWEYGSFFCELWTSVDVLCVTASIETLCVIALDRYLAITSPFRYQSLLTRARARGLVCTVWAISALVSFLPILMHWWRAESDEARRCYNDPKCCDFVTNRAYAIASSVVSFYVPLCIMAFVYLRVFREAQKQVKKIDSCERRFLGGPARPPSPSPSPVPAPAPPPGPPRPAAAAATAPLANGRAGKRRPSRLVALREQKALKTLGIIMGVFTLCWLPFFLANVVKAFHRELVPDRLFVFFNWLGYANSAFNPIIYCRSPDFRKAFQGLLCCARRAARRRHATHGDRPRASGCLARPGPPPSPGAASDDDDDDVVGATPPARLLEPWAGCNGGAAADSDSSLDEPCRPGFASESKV
Chain of 3',5'-cyclic-AMP phosphodiesterase 4D (Homo sapiens) (Q08499 whole entry): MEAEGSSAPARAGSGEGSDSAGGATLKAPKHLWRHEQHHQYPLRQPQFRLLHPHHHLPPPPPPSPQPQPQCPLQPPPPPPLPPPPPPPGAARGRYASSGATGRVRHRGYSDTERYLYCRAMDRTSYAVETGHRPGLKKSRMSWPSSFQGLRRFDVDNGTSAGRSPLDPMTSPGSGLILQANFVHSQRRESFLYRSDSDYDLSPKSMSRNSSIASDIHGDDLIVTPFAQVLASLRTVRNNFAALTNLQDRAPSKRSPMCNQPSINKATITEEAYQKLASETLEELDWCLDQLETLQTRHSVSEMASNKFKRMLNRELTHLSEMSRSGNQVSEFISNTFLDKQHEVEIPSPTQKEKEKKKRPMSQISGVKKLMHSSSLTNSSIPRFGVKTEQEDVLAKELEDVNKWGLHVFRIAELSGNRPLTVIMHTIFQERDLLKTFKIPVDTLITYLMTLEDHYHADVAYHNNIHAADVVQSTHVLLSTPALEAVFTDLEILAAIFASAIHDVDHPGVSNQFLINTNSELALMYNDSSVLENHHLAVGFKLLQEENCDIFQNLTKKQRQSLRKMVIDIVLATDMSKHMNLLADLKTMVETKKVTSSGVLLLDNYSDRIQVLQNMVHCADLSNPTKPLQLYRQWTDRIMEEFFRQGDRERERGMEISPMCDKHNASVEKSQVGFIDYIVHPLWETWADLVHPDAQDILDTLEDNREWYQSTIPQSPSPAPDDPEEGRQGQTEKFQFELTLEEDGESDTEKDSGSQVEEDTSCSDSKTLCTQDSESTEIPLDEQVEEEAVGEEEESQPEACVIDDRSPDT
Chain of Cannabinoid receptor 1 (Homo sapiens) (P21554 whole entry): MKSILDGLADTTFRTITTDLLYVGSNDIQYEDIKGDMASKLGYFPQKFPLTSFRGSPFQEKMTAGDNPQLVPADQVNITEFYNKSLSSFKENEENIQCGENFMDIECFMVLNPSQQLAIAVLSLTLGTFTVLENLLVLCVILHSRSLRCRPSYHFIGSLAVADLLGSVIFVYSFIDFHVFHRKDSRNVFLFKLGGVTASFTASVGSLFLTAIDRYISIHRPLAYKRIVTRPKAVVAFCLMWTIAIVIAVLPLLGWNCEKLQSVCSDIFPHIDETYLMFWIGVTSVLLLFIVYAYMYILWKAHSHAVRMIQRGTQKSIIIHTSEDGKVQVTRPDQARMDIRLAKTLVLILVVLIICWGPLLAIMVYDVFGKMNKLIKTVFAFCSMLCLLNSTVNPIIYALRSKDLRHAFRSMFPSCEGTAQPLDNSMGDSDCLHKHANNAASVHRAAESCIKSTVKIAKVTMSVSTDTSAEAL

Consider `Cn1ncc(-c2cc3c(N[C@@H](c4ccc5c(n4)OCCO5)C(C)(C)C)ncnc3[nH]2)c1C#N`, for which the inhibition (in general, the relative decrease from the control value, in per cent) is 33% in data set [1]; 15% in [3]; 4% in [4]; 11% in data set [5]; -5% in data set [6]; -5% in data set [7]. The inhibition in data set [8] was 20%; in [9], 28%. The Inhibition (in general, the change of the read-out against control, counted positive when it falls) in data set [2] came out at 10%.

On to `CC(C)[C@@H](Nc1ncnc2[nH]c(-c3cnn(C)c3C#N)cc12)c1ccc2c(n1)OCCO2`, for which the inhibition in data set [1] was 14%; in [3], 22%; in data set [4], 20%; in data set [5], -2%; in [6], 40%; in data set [7], -2%. Besides, the inhibition in data set [8] was 44%; in data set [9], 22%. For the same compound, in data set [2], the Inhibition is 8%.

For `CNC(=O)Cn1cc(-c2cc3c(N[C@@H](c4ccc5c(c4)S(=O)(=O)CCC5)C(C)C)ncnc3[nH]2)cn1`, the inhibition in [1] was -10%; in data set [3], 13%; in data set [4] it was -4%; in data set [5] it was 5%; in data set [6], 25%; in data set [8] it was 41%. Also, in data set [9], the inhibition was found to be 5%. For the same compound, the Inhibition in data set [2] worked out at 8%.

As to `CNCc1cc(-c2cc3c(N[C@@H](c4ccc5c(c4)S(=O)(=O)CCC5)C(C)C)ncnc3[nH]2)co1`, the inhibition is 3% in data set [1]; 6% in data set [3]; -4% in [5]; 0% in data set [7]; 43% in [8]; 21% in data set [9]. The Inhibition in [2] worked out at 11%.

`COc1ccc([C@H](Cc2nnn[nH]2)NC(=O)c2ncnc3[nH]ccc23)cc1`: the inhibition in [1] was -8%; in data set [3] it was 5%; in [4], -5%; in data set [5], -3%; in data set [7], 4%; in [8] it was 41%. The inhibition in [9] was determined as 1%. In addition, the Inhibition in data set [2] stood at 0%.

On to `CC(C)[C@@H](Nc1ncnc2[nH]c(C(=O)N[C@@H]3CCN(C)C3)cc12)c1ccc2c(c1)S(=O)(=O)CCC2`, for which the inhibition in data set [1] was -10%; in data set [3], 14%; in [4], 7%; in data set [5], 4%; in [6], 6%; in [7], -2%. Also, the values for the inhibition in data set [8] and in data set [9] were 37% and 11%, respectively. Moreover, the Inhibition in data set [2] stood at 3%.

Turning to `CC(C)[C@H](Nc1ncnc2[nH]ccc12)c1ccc2c(c1)S(=O)(=O)CCC2`, the Inhibition in data set [2] came out at 7%. In addition, the inhibition in data set [3] was 12%; in data set [4] it was -2%; in [5], 11%; in data set [6], 54%; in data set [7], 1%; in data set [8], 36%. Also, in data set [9], the inhibition stood at 10%.

As to `Cc1nn(C)cc1-c1cc2c(N[C@H](c3ccc4c(c3)S(=O)(=O)CCC4)C(C)C)ncnc2[nH]1`, the inhibition in data set [1] is 0%; in data set [3], 10%; in data set [4], -8%; in [5] it was 1%; in data set [6], 43%; in [7] it was -2%. Besides, the inhibition was 43% in [8] and 7% in data set [9]. In addition, the Inhibition in data set [2] is 5%.

Consider `CC(C)[C@H](Nc1ncnc2[nH]c(-c3cnn(C)c3C#N)cc12)c1ccc2c(n1)OCCO2`, for which the inhibition in data set [1] was 46%; in data set [3] it was 43%; in data set [4], 1%; in data set [5], 11%; in [6], 18%; in data set [7] it was 2%. The values for the inhibition in data set [8] and in data set [9] were 70% and 11%, respectively. In data set [2], the Inhibition came to 4%.

On to `C[C@H](C(=O)O)[C@@H](NC(=O)c1ncnc2[nH]ccc12)c1ccc(Br)cc1`, for which, in [2], the Inhibition is on record as -1%. In addition, the inhibition is 2% in data set [3]; 6% in data set [4]; -5% in data set [5]; -4% in data set [6]; 0% in data set [7]; 30% in data set [8]. The inhibition in data set [9] was found to be 3%.
